The text below walks through data of patent US12337010B2, “Compositions and methods of treatment using nicotinamide mononucleotide” (Washington University, priority 2017, dated 2025).

The term Km denotes the substrate concentration at which the rate is half of its maximum. One may read the Vmax as the rate approached at saturating substrate.

Test [1] relates to primary mouse hepatocytes. The test is described as follows: NMN uptake in primary mouse hepatocytes, intracellular NMN by HPLC. The class given is cell-based. Here is the method:
The amounts of adenosine produced were determined by HPLC. […] Silencing efficiencies were evaluated by quantitative RT-PCR.
Primary mouse hepatocytes were pretreated with 500 nM FK866 for 24 h and then incubated with a cocktail of 20 μM dipyridamole, 500 μM AOPCP, and 500 nM FK866, with or without 100 μM NMN. NMN was measured by HPLC (n=4 mice, except for 3 data sets for 15 and 30 minute time points for inhibitors only; analyzed using ANOVA with Sidak's test).
To measure the knockdown efficiencies of Slc12a8 and Nrk1 mRNA in primary mouse hepatocytes, cells were treated with scramble and Slc12a8 or Nrk1 siRNA for 72 h (n=5 mice for Slc12a8 silencing and n=3 for Nrk1 silencing; analyzed by unpaired […] t-test). Without being limited by theory, these conditions knocked down expression of Slc12a8 and Nrk1, a major NR kinase that converts NR to NMN intracellularly (Belenky, P., et al., Cell, 129, 473-484, 2007). Primary hepatocytes treated with scramble, Slc12a8, and Nrk1 siRNA were assayed at 1 min after addition of 100 μM NMN via HPLC. Culture conditions were the same as described in Example 3 (n=5 mice for Slc12a8 silencing and n=3 for Nrk1 silencing; analyzed by ANOVA with Tukey's test). The knockdown efficiencies for both genes are approximately 80% (FIG. 7).

In test [2] the target is T1, Slc12a8 (Mus musculus, UniProt Q8VI23).
T1 construct: NIH3T3 cells were transfected with 5 μg of pCXN2 carrying the full-length Slc12a8 cDNA (Slc12a8-OE); expressed in transfected cells
T1 sequence (Q8VI23 1-705): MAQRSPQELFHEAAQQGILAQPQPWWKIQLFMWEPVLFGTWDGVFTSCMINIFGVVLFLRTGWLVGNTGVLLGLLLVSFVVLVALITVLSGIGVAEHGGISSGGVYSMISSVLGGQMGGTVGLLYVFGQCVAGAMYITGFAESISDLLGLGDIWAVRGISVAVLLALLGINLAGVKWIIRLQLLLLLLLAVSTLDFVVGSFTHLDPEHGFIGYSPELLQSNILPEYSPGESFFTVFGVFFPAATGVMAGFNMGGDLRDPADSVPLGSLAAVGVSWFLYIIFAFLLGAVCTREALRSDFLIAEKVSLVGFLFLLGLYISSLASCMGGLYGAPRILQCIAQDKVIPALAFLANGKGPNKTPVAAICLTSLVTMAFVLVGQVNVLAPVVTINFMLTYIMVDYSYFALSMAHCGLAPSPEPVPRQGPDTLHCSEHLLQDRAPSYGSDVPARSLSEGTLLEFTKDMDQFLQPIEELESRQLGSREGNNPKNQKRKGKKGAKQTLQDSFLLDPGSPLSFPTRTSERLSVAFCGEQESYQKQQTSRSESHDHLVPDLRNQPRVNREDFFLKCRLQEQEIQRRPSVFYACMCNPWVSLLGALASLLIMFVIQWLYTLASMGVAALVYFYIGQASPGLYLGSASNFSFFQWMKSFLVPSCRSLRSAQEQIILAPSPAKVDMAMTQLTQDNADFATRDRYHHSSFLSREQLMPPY
The test is described as follows: Radiolabeled NMN uptake in Slc12a8-OE and control NIH3T3 cells. The following applies: Slc12a8-OE NIH3T3 cells, 4 min, 37° C., control background subtracted. The test is classed as cell-based. Here is the method:
NMN uptake analyses with radiolabeled NMN. Control and Slc12a8-OE NIH3T3 cells were harvested by centrifugation (400×g, 5 min), washed once in HBSS, and incubated at 37° C. in HBSS [pH 7.5] (5×10^6 cells/ml) containing 100 nM 3H-β-Nicotinamide mononucleotide (9 Ci/mmol; Moravek Biochemicals, CA) and unlabeled NMN to make the final concentration 25 μM. At the designated time points (1, 3, 5 and 10 minutes), aliquots of the cells (100 μl) were collected and placed in 1.5-ml microcentrifuge tubes containing silicone-mineral oil (density, 1.015; Sigma-Aldrich) on the top of 2 M potassium hydroxide solution, followed by centrifugation at 16,000×g for 30s. Cells were separated from the buffer and pelleted through the silicone-mineral oil layer. The radioactivity in these cell pellets was determined by a liquid scintillation counter. For calculating Km and Vmax, the same conditions were used as described above, but with various total concentrations of NMN, ranging from 1 μM to 100 μM. At the 4-min time point, 100 μl of cell suspension was collected and pelleted in the same way described above. The radioactivity in cell pellets was determined by a liquid scintillation counter. The radioactivity measured in control NIH3T3 cells was subtracted to calculate Slc12a8-specific NMN uptake in Slc12a8-OE NIH3T3 cells.
Uptake of NMN was measured as described in methods under “NMN uptake analyses with radiolabeled NMN” using 25 μM ^3H-NMN at 37° C. in control and Slc12a8-OE NIH3T3 cells over 10 min in Hanks' buffer [ph7.5] with Mg2+ and Ca2+ (n=12; analyzed by ANOVA with Sidak's test). […] This Km is qualitatively consistent with a detected range of NMN concentrations in mouse plasma and erythrocytes (Revollo, J. R. et al., Cell Metab., 6, 363-375, 2007; Ramsey, K. M., et al., Science, 324, 651-654, 2009; Yamada, K., et al., Anal. Biochem., 352, 282-285, 2006).

Test [3] has as its system NIH3T3 cells. In words: Intracellular NAD+ levels in control and Slc12a8-OE NIH3T3 cells. The class given is cell-based, mouse. The following applies: Slc12a8-OE cells, additional 1-hr incubation with 100 μM NMN after inhibitor cocktail. The text has this:
NAD+ and NMN measurements by HPLC.

`NC(=O)c1ccc[n+]([C@@H]2O[C@H](COP(=O)([O-])O)[C@@H](O)[C@H]2O)c1` [NMN, nicotinamide mononucleotide]: the “intracellular NMN levels” value in test [1] (100 μM NMN with 20 μM dipyridamole, 500 μM AOPCP, 500 nM FK866, 1 min time point vs control) is “significantly increase”. In addition, the NMN uptake entry in test [1] (Nrk1-knockdown hepatocytes, 1 min after 100 μM NMN) is reported as “no significant reduction”. In addition, the “fast uptake of NMN” value in test [1] (Slc12a8-knockdown hepatocytes, 1 min after 100 μM NMN) was “completely abrogated”. Moreover, in test [2], the Km worked out at 34.1 ± 8.3 µM and the Vmax is 11.5 ± 1.2 pmol/min/mg. Also, in test [3], the “intracellular NAD+ levels” value is listed as “restore NAD+ levels to the original levels”.
